Measurements: patent publication US7919517B2, “Indazole derivatives” (Kyowa Hakko Kirin Co., Ltd., priority 2003, dated 2011)
Counter-ions that a name gives are not always drawn.

What was measured:
Assay type in all cases: cell-based
[1] = tested on: human acute myeloid leukemia cell line MV-4-11; test: Cytostatic activity on leukemia cell line MV-4-11 (WST-1); conditions: 72 hours, MV-4-11 cells; for inhibition at 10 µM: Homo sapiens, MV4-11, 10 μmol/L, read-out: cytostatic rate MV-4-11 (%) (10 μmol/L)
Method: (§1) The cytostatic rates of a test compound on human acute myeloid leukemia cell lines MV-4-11 and ML-1, and human chronic myeloid leukemia cell line K562 were determined in the following manner.
(§2) Each cell was cultured using Roswell Park Memorial Institute's Medium (RPMI) 1640 (Gibco, Catalog No. 11875-093) containing 10% fetal bovine serum (Gibco, Catalog No. 10437-028) and 1% penicillin/streptomycin (1:1) (Gibco, Catalog No. 15140-122). Each 80 μL of the MV-4-11 cell having a concentration of 7.5×10^4 cells/mL (or the ML-1 cell or K562 cell having a concentration of 2.5×10^4 cells/mL) was inoculated to wells of a TC MICROWELL 96U plate (Nalge Nunc International, Catalog No. 163320) and was cultured in a 5% carbon dioxide gas incubator at 37° C. for 4 hours. As a blank, only RPMI medium (80 μL) was added to a well. Each 20 μL of a solution of the test compound in dimethyl sulfoxide (DMSO) which was prepared to make the final concentration to 10 μmol/L, was added to the MV-4-11 cell, ML-1 cell and K562 cell, respectively. Each 20 μL of DMSO was added to the control well and the blank well to […]. After adding the test compound, the cells were incubated in a 5% carbon dioxide gas incubator at 37° C. for 72 hours. After adding 20 μL of WST-1 reagent {4-[3-(4-iodophenyl)-2-(4-nitrophenyl)-2H-5-tetrazolio]-1,3-benzene disulfonate sodium salt} (Roche Diagnostics K.K., Catalog No. 1644807) diluted to 50% with RPMI medium, the cells were further incubated at 37° C. for 2 hours. Then, the absorbances at 450 nm (reference wavelength: 690 nm) were determined with a microplate spectrophotometer SPECTRA max 340PC (Molecular Devices Corporation). The relative growth (%) of a well to which the test compound had been added was determined while setting the absorbance of a well to which not the test compound but DMSO alone had been added (control) at 100% and that of a well containing RPMI medium alone at 0%. The cytostatic rate (%) of the test compound was determined by subtracting the calculated relative growth from 100.

[2] = tested on: human acute myeloid leukemia cell line ML-1; test: Cytostatic activity on leukemia cell line ML-1 (WST-1); conditions: 72 hours, ML-1 cells; for inhibition at 10 µM: Homo sapiens, ML1, 10 μmol/L, read-out: cytostatic rate ML-1 (%) (10 μmol/L)
Method: as §1, §2

[3] = tested on: human chronic myeloid leukemia cell line K562; test: Cytostatic activity on leukemia cell line K562 (WST-1); conditions: 72 hours, K562 cells; for inhibition at 10 µM: Homo sapiens, 10 μmol/L, read-out: cytostatic rate K562 (%) (10 μmol/L)
Method: as §1, §2

[4] = tested on: human colon cancer cell line Colo205; test: Cytostatic activity on solid carcinoma cell line Colo205 (WST-1); conditions: 72 hours, Colo205 cells; for inhibition at 10 µM: Homo sapiens, COLO 205, 10 μmol/L, read-out: cytostatic rate Colo205 (%) (10 μmol/L)
Method: as §2
The cytostatic rate of a test compound on the human colon cancer cell line Colo205 was determined in the following manner.
The cell was cultured using Roswell Park Memorial Institute's Medium (RPMI) 1640 (Gibco, Catalog No. 11875-093) containing 10% fetal bovine serum (Gibco, Catalog No. 10437-028) and 1% penicillin/streptomycin (1:1) (Gibco, Catalog No. 15140-122). Each 80 μL of the Colo205 having a concentration of 1.25×10^4 cells/mL was inoculated to wells of a TC MICROWELL 96F plate (Nalge Nunc International, Catalog No. 167008) and was cultured in a 5% carbon dioxide gas incubator at 37° C. for 24 hours. As a blank, only RPMI (80 μL) was added to a well. Each 20 μL of a solution of the test compound in DMSO which was prepared to make the final concentration to 10 μmol/L, was added to the Colo205 cell. Each 20 μL of DMSO was added to the control well and the blank well to […]. After adding the test compound, the cell was incubated in a 5% carbon dioxide gas incubator at 37° C. for 72 hours. The cytostatic rate (%) was then determined in the same way as the leukemia cell lines.

Row | Structure (SMILES) | cytostatic rate MV-4-11 (%) (10 μmol/L) [1] | cytostatic rate ML-1 (%) (10 μmol/L) [2] | cytostatic rate K562 (%) (10 μmol/L) [3] | inhibition at 10 µM [4] [%] | inhibition at 10 µM [1] [%] | inhibition at 10 µM [2] [%] | inhibition at 10 µM [3] [%] | cytostatic rate Colo205 (%) (10 μmol/L) [4]
1 | Cl.O=C(c1ccc(/C=C/c2n[nH]c3ccccc23)cc1)N1CCC2(CC1)OCCO2 [Compound 16, (E)-4-ethylenedioxy-1-{4-[2-(1H-indazol-3-yl)vinyl]benzoyl}piperidine hydrochloride] | 89 | 97 | 94 |  |  |  |  | 
2 | O=C(c1ccc(/C=C/c2n[nH]c3ccccc23)cc1)N1CCN(C(=O)[C@@H]2CCCN2)CC1 [Compound 140, (S)-(E)-4-[(pyrrolidin-2-yl)carbonyl]-1-{4-[2-(1H-indazol-3-yl)vinyl]benzoyl}piperazine] |  |  |  | 85 | 99 | 82 | 95 | 
3 | CCN(CC)CCNC(=O)c1ccc(/C=C/c2n[nH]c3ccccc23)cc1 [Compound 63, (E)-N-[2-(diethylamino)ethyl]-4-[2-(1H-indazol-3-yl)vinyl]benzamide] |  |  |  | 88 | 98 | 87 | 76 | 
4 | CC(=O)N1CCN(C(=O)c2ccc(/C=C/c3n[nH]c4ccccc34)cc2)CC1 [Compound 13, (E)-4-Acetyl-1-{4-[2-(1H-indazol-3-yl)vinyl]benzoyl}piperazine] |  |  |  |  | 94 | 90 | 99 | 
5 | CC(=O)N(C)CC(=O)N1CCN(C(=O)c2ccc(/C=C/c3n[nH]c4ccccc34)cc2)CC1 [Compound 138, (E)-4-(N-acetyl-N-methylaminoacetyl)-1-{4-[2-(1H-indazol-3-yl)vinyl]benzoyl}piperazine] |  |  |  | 91 | 99 | 88 | 94 | 
6 | CC(C)(N)C(=O)N1CCN(C(=O)c2ccc(/C=C/c3n[nH]c4ccccc34)cc2)CC1 [Compound 131, (E)-4-(2-amino-2-methylpropionyl)-1-{4-[2-(1H-indazol-3-yl)vinyl]benzoyl}piperazine dihydrochloride] |  |  |  | 91 | 99 | 85 | 98 | 
7 | CN1CCCC1C(=O)N1CCN(C(=O)c2ccc(/C=C/c3n[nH]c4ccccc34)cc2)CC1 (stereo not drawn) [Compound 145, (E)-4-[(1-methylpyrrolidin-2-yl)carbonyl]-1-{4-[2-(1H-indazol-3-yl)vinyl]benzoyl}piperazine] |  |  |  | 92 | 99 | 85 | 94 | 
8 | CC(C)CC(=O)N1CCN(C(=O)c2ccc(/C=C/c3n[nH]c4ccccc34)cc2)CC1 [Compound 66, (E)-4-(3-methylbutyryl)-1-{4-[2-(1H-indazol-3-yl)vinyl]benzoyl}piperazine] |  |  |  | 83 | 99 | 74 | 89 | 
9 | O=C1CN(C(=O)c2ccc(/C=C/c3n[nH]c4ccccc34)cc2)CCN1 [Compound 89, (E)-4-{4-[2-(1H-indazol-3-yl)vinyl]benzoyl}piperazin-2-one] |  |  |  | 92 | 98 | 86 | 61 | 
10 | COCCC(=O)N1CCN(C(=O)c2ccc(/C=C/c3n[nH]c4ccccc34)cc2)CC1 [Compound 98, (E)-4-(3-methoxypropionyl)-1-{4-[2-(1H-indazol-3-yl)vinyl]benzoyl}piperazine] |  |  |  | 88 | 98 | 79 | 89 | 
11 | CCN(CC)C(=O)C1CCN(C(=O)c2ccc(/C=C/c3n[nH]c4ccccc34)cc2)CC1 [Compound 81, (E)-N,N-diethyl-1-{4-[2-(1H-indazol-3-yl)vinyl]benzoyl}piperidine-4-carboxamide] |  |  |  | 85 | 98 | 77 | 95 | 
12 | CC(CO)(CO)C(=O)N1CCN(C(=O)c2ccc(/C=C/c3n[nH]c4ccccc34)cc2)CC1 [Compound 136, (E)-4-(3-hydroxy-2-hydroxymethyl-2-methylpropionyl)-1-{4-[2-(1H-indazol-3-yl)vinyl]benzoyl}piperazine hydrochloride] |  |  |  | 91 | 99 | 82 | 94 | 
13 | CC(C)(O)CC(=O)N1CCN(C(=O)c2ccc(/C=C/c3n[nH]c4ccccc34)cc2)CC1 [Compound 90, (E)-4-(3-methyl-3-hydroxybutyryl)-1-{4-[2-(1H-indazol-3-yl)vinyl]benzoyl}piperazine] |  |  |  | 88 | 98 | 79 | 85 | 
14 | O=C(c1ccc(/C=C/c2n[nH]c3ccccc23)cc1)N1CCOCC1 [Compound 9, (E)-1{4-[2-(1H-indazol-3-yl)vinyl]benzoyl}morpholine] | 91 | 90 | 98 |  |  |  |  | 
15 | O=C(c1ccc(/C=C/c2n[nH]c3ccccc23)cc1)N1CCC(N2CCOCC2)CC1 [Compound 106, (E)-1-{4-[2-(1H-indazol-3-yl)vinyl]benzoyl}-4-morpholinopiperidine] |  |  |  | 37 | 98 | 58 | 35 | 
16 | O=C(c1ccc(/C=C/c2n[nH]c3ccccc23)cc1)N1CCN(C(=O)[C@H]2CCNC2)CC1 [Compound 124, (S)-(E)-1-{4-[2-(1H-indazol-3-yl)vinyl]benzoyl}-4-(pyrrolidin-3-ylcarbonyl)piperazine dihydrochloride] |  |  |  | 87 | 98 | 83 | 94 | 
17 | NC(=O)c1cc(/C=C/c2n[nH]c3ccccc23)ccc1OCCN1CCOCC1 [Compound 8, (E)-5-[2-(1H-Indazol-3-yl)vinyl]-2-(2-morpholinoethoxy)benzamide] |  |  |  |  | 95 | 84 | 95 | 
18 | O=C(c1ccc(/C=C/c2n[nH]c3ccccc23)cc1)N1CCN(c2c(N3CCCCC3)c(=O)c2=O)CC1 [Compound 155, (E)-3-piperidino-4-{[4-(2-(1H-indazol-3-yl)vinyl)benzoyl]piperazin-1-yl}-3-cyclobutene-1,2-dione] | 97 | 79 | 96 |  |  |  |  | 88
19 | Cc1cc(/C=C/c2n[nH]c3ccccc23)ccc1C(=O)N1CCNCC1 [Compound 95, (E)-1-{4-[2-(1H-indazol-3-yl)vinyl]-2-methylbenzoyl}piperazine dihydrochloride] |  |  |  | 86 | 96 | 70 | 93 | 
20 | CN(C)C(=O)c1ccc(/C=C/c2n[nH]c3ccccc23)cc1 [Compound 1, (E)-N,N-Dimethyl-4-[2-(1H-indazol-3-yl)vinyl]benzamide] |  |  |  |  | 98 | 93 | 95 | 
21 | CNC(=O)c1ccc(/C=C/c2n[nH]c3ccccc23)cc1 [Compound 14, (E)-N-Methyl-4-[2-(1H-indazol-3-yl)vinyl]benzamide] |  |  |  |  | 76 | 84 | 98 | 
